Type in all cases: biochemical
The target in assay [1] is Bovine LOX (Bos taurus (Bovine), UniProt P33072). Put plainly: LOX inhibition, peroxidase-coupled Amplex Red amine oxidase assay. The following applies: 30 min preincubation at 37° C., putrescine substrate. Put shortly: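 Bovine LOX in 1.2 M urea, 50 mM sodium borate pH 8.2 with 1 μM mofegiline and 0.5 mM pargyline; putrescine at twice KM (e.g. 20 mM for LOX) with Amplex Red/HRP. Fluorescence (ex 565/em 590 nm) read kinetically over 30 min at 37–45 °C; IC50 from slopes.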

In assay [2] the target is Human LOXL2 (Homo sapiens (Human), UniProt Q9Y4K0). Put plainly: LOXL2 inhibition, peroxidase-coupled Amplex Red amine oxidase assay. The settings on record: 30 min preincubation at 37° C., putrescine substrate. Put shortly:
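Enzyme in 1.2 M urea, 50 mM sodium borate pH 8.2 with 1 μM mofegiline and 0.5 mM pargyline, preincubated 30 min at 37° C with compound (11-point CRC). Putrescine at twice KM (10 mM for LOXL2) with Amplex Red/HRP; fluorescence (ex 565, em 590) read kinetically 30 min; IC50 from slopes.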

In assay [3] the target is human recombinant SSAO/VAP-1 (Homo sapiens (Human), UniProt Q16853). Put plainly: Inhibition of human recombinant SSAO/VAP-1 amine oxidase activity. The settings on record: 30 min preincubation at 37° C., 600 μM benzylamine. In outline: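 Purified SSAO/VAP-1 (residues 34-763, expressed in CHO Lec 8 cells; 0.25 μg/mL) preincubated 30 min at 37° C with compound in 0.1 M sodium phosphate pH 7.4. Reaction mix of 600 μM benzylamine, 120 μM Amplex Red and 1.5 U/mL HRP added; fluorescence (ex 565/em 590 nm) read every 2.5 min for 30 min; IC50 from kinetic slopes over 4-11 point curves.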

The target in assay [4] is Recombinant human MAO-B (Homo sapiens (Human), UniProt P27338). As to the kind of experiment: Inhibition of human recombinant MAO-B. The following applies: benzylamine 100 μM. Put shortly:
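Recombinant human MAO-B used as enzyme source (0.06 mg/mL, stated concentration). Run as for the human SSAO/VAP-1 assay, except benzylamine substrate at 100 μM.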

Counter-ions that a name gives are not always drawn. Where only a bound is given, the exact number is not on record here.

For orientation: IC50 means the concentration that inhibits the measured activity by half.

Chain of Bovine LOX (P33072 170-418): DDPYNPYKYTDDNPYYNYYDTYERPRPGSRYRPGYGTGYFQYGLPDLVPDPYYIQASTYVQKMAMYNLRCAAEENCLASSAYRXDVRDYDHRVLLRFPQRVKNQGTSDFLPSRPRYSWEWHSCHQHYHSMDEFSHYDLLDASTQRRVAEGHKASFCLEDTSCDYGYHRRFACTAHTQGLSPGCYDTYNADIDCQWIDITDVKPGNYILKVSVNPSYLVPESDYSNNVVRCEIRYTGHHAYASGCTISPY
Chain of human recombinant SSAO/VAP-1 (Q16853 34-763): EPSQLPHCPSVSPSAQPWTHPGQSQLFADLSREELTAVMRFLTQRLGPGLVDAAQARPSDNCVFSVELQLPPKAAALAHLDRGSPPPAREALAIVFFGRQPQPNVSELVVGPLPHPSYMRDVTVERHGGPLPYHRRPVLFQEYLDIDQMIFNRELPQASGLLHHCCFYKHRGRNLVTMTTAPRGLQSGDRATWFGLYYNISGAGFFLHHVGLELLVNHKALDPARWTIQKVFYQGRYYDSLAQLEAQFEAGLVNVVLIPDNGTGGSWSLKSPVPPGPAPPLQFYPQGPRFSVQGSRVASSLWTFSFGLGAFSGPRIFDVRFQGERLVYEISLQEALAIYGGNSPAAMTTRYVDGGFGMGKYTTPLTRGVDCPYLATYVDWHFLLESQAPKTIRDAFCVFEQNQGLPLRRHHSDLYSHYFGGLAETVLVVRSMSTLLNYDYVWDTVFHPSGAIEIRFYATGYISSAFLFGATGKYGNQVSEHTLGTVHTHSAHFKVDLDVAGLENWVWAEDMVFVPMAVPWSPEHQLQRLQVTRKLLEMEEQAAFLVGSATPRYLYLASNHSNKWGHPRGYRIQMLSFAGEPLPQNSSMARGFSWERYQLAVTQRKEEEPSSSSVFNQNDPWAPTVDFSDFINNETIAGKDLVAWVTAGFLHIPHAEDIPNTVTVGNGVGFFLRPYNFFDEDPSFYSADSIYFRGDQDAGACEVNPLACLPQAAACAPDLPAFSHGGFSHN
Chain of Human LOXL2 (Q9Y4K0 26-774): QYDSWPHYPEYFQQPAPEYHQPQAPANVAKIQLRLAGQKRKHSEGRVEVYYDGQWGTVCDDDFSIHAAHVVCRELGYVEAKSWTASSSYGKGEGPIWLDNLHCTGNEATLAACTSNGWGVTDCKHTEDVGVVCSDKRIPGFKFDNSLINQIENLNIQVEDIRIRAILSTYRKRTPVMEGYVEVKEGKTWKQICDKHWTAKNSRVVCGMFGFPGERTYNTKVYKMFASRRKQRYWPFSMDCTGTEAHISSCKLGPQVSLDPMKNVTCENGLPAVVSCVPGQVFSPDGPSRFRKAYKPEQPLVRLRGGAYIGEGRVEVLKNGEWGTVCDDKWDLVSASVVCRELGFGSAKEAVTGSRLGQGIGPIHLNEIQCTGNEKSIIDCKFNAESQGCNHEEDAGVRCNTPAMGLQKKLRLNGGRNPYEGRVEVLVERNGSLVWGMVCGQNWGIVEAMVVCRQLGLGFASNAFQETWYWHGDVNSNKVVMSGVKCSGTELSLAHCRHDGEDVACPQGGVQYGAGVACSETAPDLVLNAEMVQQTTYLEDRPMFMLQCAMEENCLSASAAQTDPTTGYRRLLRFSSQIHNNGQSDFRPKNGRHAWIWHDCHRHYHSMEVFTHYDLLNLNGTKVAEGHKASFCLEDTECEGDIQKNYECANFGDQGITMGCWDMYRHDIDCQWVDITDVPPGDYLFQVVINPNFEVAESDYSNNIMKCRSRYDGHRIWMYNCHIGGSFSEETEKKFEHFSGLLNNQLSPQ
Chain of Recombinant human MAO-B (P27338 whole entry): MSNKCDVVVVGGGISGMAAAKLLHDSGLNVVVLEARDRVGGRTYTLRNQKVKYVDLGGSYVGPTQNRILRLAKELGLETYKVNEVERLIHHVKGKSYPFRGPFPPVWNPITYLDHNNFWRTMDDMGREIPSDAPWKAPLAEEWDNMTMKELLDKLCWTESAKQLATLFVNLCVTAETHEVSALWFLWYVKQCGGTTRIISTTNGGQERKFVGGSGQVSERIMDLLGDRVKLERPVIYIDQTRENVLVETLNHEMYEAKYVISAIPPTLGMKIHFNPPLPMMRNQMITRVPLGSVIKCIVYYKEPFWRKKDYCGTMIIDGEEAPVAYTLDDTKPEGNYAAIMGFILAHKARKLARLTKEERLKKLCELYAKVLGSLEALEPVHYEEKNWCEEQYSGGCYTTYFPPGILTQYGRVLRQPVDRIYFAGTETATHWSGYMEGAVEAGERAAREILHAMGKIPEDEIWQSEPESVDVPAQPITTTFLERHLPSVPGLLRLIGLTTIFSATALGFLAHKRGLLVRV

Take `Cc1c(-c2cccc(S(=O)(=O)N(C)C)c2)c2ccc(C(=O)N(C)C)cc2n1C/C(F)=C/CN` [Compound 10, (Z)-1-(4-amino-2-fluorobut-2-en-1-yl)-3-(3-(N,N-dimethylsulfamoyl)phenyl)-N,N,2-trimethyl-1H-indole-6-carboxamide]: the IC50 in assay [1] was more than 0.3 µM; in assay [2], less than 0.3 µM; in assay [3], more than 3 µM; in assay [4], more than 3 µM.
On to `Cc1c(-c2cccc(S(=O)(=O)N(C)C)c2)c2cc(NS(C)(=O)=O)ccc2n1C/C(F)=C/CN` [Compound 104, (Z)-3-(1-(4-amino-2-fluorobut-2-en-1-yl)-2-methyl-5-(methylsulfonamido)-1H-indol-3-yl)-N,N-dimethylbenzenesulfonamide Hydrochloride], for which the IC50 in assay [1] was more than 0.3 µM; in assay [2], less than 0.3 µM; in assay [3], more than 3 µM; in assay [4], more than 3 µM.
Regarding `Cc1c(-c2cccc(S(=O)(=O)N(C)C)c2)c2cc(C(=O)O)ccc2n1C/C(F)=C/CN` [Compound 8, (Z)-1-(4-amino-2-fluorobut-2-en-1-yl)-3-(3-(N,N-dimethylsulfamoyl)phenyl)-2-methyl-1H-indole-5-carboxylic acid], the IC50 in assay [1] was more than 0.3 µM; in assay [2], less than 0.3 µM; in assay [3], more than 3 µM; in assay [4], more than 3 µM.
Turning to `Cc1cc(-c2c(C)n(C/C(F)=C/CN)c3ccc(S(C)(=O)=O)cc23)cc(C)n1` [Compound 89, (Z)-4-(3-(2,6-dimethylpyridin-4-yl)-2-methyl-5-(methylsulfonyl)-1H-indol-1-yl)-3-fluorobut-2-en-1-amine], the IC50 in assay [1] was more than 0.3 µM; in assay [2], less than 0.3 µM; in assay [3], more than 3 µM; in assay [4], more than 3 µM.
As for `CNS(=O)(=O)c1cncc(-c2c(C)n(C/C(F)=C/CN)c3ccc(Cl)cc23)c1` [Compound 70, (Z)-5-(1-(4-amino-2-fluorobut-2-en-1-yl)-5-chloro-2-methyl-1H-indol-3-yl)-N-methylpyridine-3-sulfonamide], the IC50 in assay [1] was more than 0.3 µM; in assay [2] it was less than 0.3 µM; in assay [3], more than 3 µM; in assay [4], more than 3 µM.
With `CN(C)S(=O)(=O)c1cncc(-c2c(Cl)n(C/C(F)=C/CN)c3ccccc23)c1` [Compound 96, (Z)-5-(1-(4-amino-2-fluorobut-2-en-1-yl)-2-chloro-1H-indol-3-yl)-N,N-dimethylpyridine-3-sulfonamide], the IC50 was more than 0.3 µM in assay [1], less than 0.3 µM in assay [2], more than 3 µM in assay [3] and more than 3 µM in assay [4].
For the molecule `CN(C)S(=O)(=O)c1cccc(-c2c(Cl)n(C/C(F)=C/CN)c3cccnc23)c1` [Compound 99, (Z)-3-(1-(4-amino-2-fluorobut-2-en-1-yl)-2-chloro-1H-pyrrolo[3,2-b]pyridin-3-yl)-N,N-dimethylbenzenesulfonamide], the IC50 in assay [1] is more than 0.3 µM; in assay [2] it was less than 0.3 µM; in assay [3], more than 3 µM; in assay [4], more than 3 µM.
On to `COc1cc(-c2c(C)n(C/C(F)=C/CN)c3ccc(S(C)(=O)=O)cc23)ccn1` [Compound 98, (Z)-3-fluoro-4-(3-(2-methoxypyridin-4-yl)-2-methyl-5-(methylsulfonyl)-1H-indol-1-yl)but-2-en-1-amine], for which the IC50 in assay [1] was more than 0.3 µM; in assay [2], less than 0.3 µM; in assay [3], more than 3 µM; in assay [4], more than 3 µM.
`Cc1c(-c2ccncc2)c2cc(Cl)ccc2n1C/C(F)=C/CN` [Compound 76, (Z)-4-(5-chloro-2-methyl-3-(pyridin-4-yl)-1H-indol-1-yl)-3-fluorobut-2-en-1-amine]: the IC50 in assay [1] was more than 0.3 µM; in assay [2], less than 0.3 µM; in assay [3], more than 3 µM; in assay [4], more than 3 µM.

Values taken from patent publication US10717733B2, “Haloallylamine indole and azaindole derivative inhibitors of lysyl oxidases and uses thereof” (PHARMAXIS LTD., priority 2016, dated 2020).
